Key:
MCF7 = test: Cytotoxicity against human MCF7 cells assessed as reduction in cell viability after 72 hrs by MTT assay; assay type: functional, cell-based; conditions: MCF7, 72 h
[1] = Cytotoxicity against human DU145 cells assessed as reduction in cell viability after 72 hrs by MTT assay; assay type: functional, cell-based; conditions: DU-145, 72 h
[2] = Cytotoxicity against human GM00637 cells assessed as reduction in cell viability after 72 hrs by MTT assay; assay type: cell-based; conditions: GM00637, 72 h
Thioredoxin reductase = Thioredoxin reductase (Homo sapiens, UniProt Q16881+Q9NNW7+Q86VQ6); test: Irreversible inhibition of thioredoxin reductase (unknown origin); assay type: protein assay
[3] = Inhibition of recombinant human TRX1/human placental thioredoxin reductase using DTNB as substrate in presence of NADPH by spectrophotometric method

Row | Ki (Thioredoxin reductase) | IC50 [3] | Compound | IC50 (MCF7) | IC50 [1] | IC50 [2]
1 | – | – | COc1cc2nc(-c3ccccc3)nn(-c3ccccc3)c-2cc1=O | > 5 µM | > 5 µM | > 5 µM
2 | – | – | CCN(CC)c1cc2nc(-c3ccccc3)nn(-c3ccccc3)c-2cc1=O | > 5 µM | 3.11 µM | 2.73 µM
3 | – | – | O=c1cc2n(-c3ccccc3)nc(-c3ccccc3)nc-2cc1N1CCCC1 | 0.36 µM | 2.46 µM | 1.79 µM
4 | – | – | O=c1cc2n(-c3ccccc3)nc(-c3ccccc3)nc-2cc1N1CCCCC1 | 1.98 µM | 0.61 µM | 1.19 µM
5 | – | – | O=c1cc2n(-c3ccccc3)nc(-c3ccccc3)nc-2cc1N1CCOCC1 | 2.37 µM | 3.21 µM | 2.29 µM
6 | – | – | O=c1cc2n(-c3ccccc3)nc(-c3ccccc3)nc-2cc1N1CCSCC1 | 0.97 µM | 1.22 µM | 1.63 µM
7 | – | – | CCNc1cc2nc(-c3ccccc3)nn(-c3ccccc3)c-2cc1=O | 1.62 µM | 0.22 µM | 0.24 µM
8 | – | – | CCOc1cc2nc(-c3ccccc3)nn(-c3ccccc3)c-2cc1=O | > 5 µM | > 5 µM | > 5 µM
9 | – | – | CC(=O)Nc1cc2nc(-c3ccccc3)nn(-c3ccccc3)c-2cc1=O | > 5 µM | > 5 µM | > 5 µM
10 | – | – | Nc1cc2nc(-c3ccccc3)nn(-c3ccccc3)c-2cc1=O | 0.95 µM | 1.83 µM | 2.04 µM
11 | 0.28 µM | 0.17 µM | C[C@@H]1CO[C@@H]2C3=C(C(=O)C=CC3=O)[C@H]3OC(=O)[C@@H]4CC[C@H]5C1CC[C@@]25[C@@H]34 | 0.28 µM | 0.43 µM | 0.51 µM
12 | – | – | CNc1cc2nc(-c3ccccc3)nn(-c3ccccc3)c-2cc1=O | 0.69 µM | 0.98 µM | 0.93 µM
